In brackets after ≈: the same amount, converted by molar mass. Entries after “also recorded” stand apart in the source; their conditions may differ. Read-outs that look alike come from different tables or passages of the source.
What was measured:
Assay type in all cases: physicochemical
[1] = Physical stability of amorphous mirdametinib on storage (PXRD, PLM)
Procedure: Solutions of mirdametinib (100 mg/mL) were prepared in methanol and THF, and each solution was divided into three equal parts to be used for 1) open at RT stability evaluation, 2) closed at RT stability evaluation, and 3) closed at −20° C. stability evaluation.
PXRD analyses of all six samples (three from both methanol and THF) following rapid evaporation indicated an amorphous state. Other analyses (e.g. PLM, TGA-IR, DSC) were performed on one sample from each solvent. Following initial analyses, one sample from each solvent was stored at RT in an open vial, at RT in a capped vial, and at −20° C. in a capped vial.

[2] = Solid-state stability of crystal forms at ambient conditions
Source text: The following sections describe and summarize the physical properties of each of the crystal forms observed for mirdametinib.

[3] = Drying of certain forms via vacuum oven at 45° C.; conditions: overnight in vacuum oven at 45° C.; PXRD at about 70% ambient lab humidity
Procedure: Drying studies for certain forms were conducted overnight in a vacuum oven at 45° C. After drying, samples were equilibrated to RT for 10 min. and analyzed by PXRD at about 70% ambient lab humidity.

[4] = Desolvation/dehydration by heating in TGA pan to 100° C.; conditions: 15° C./min from 25 to 100° C., 5 min. hold at 100° C., air-cooled to RT
Procedure: Desolvation/dehydration studies of certain forms were conducted in a TGA pan with loose lid at a heating rate of 15° C./min from 25 to 100° C. with a 5 min. hold at 100° C. Samples were air-cooled to RT on the TGA and analyzed by PXRD if crystalline. […] PXRD indicated Form I.

[5] = Approximate kinetic solubility (visual, solvent aliquot addition); conditions: thermodynamic from solid; for solubility: read-out: Solubility (mg/mL)at RT (23° C.); for solubility at 1 h: heated to 40° C. for 1 hour, read-out: Solubility (mg/mL) at 40° C.
Procedure: Solubility of mirdametinib prepared by Example 3 was assessed in 30 solvents. The solubility was visually estimated at room temperature (RT; ˜23° C.) by dosing small aliquots of solvent into a fixed amount of solid (˜10 mg) until the dissolution point or a maximum volume (1.8 mL) was reached. Samples that contained undissolved solids at RT were heated to 40° C. for 1 hour and the dissolution was assessed visually. The solubility data are shown below in Table 1.

In the case of `O=C(NOC[C@H](O)CO)c1ccc(F)c(F)c1Nc1ccc(I)cc1F` [A- 2], the “Results (solid form after 1 day at ambient)” value [1] is reported as “Form IV”.
With `O=C(NOC[C@H](O)CO)c1ccc(F)c(F)c1Nc1ccc(I)cc1F` [Amorphous mirdametinib, N—((R)-2,3-dihydroxypropoxy)-3,4-difluoro-2-(2-fluoro-4-iodo-phenylamino)-benzamide] the “Physically stable for” value ([1]; open and closed vials at RT) was “at least 24 hours”.
With `O=C(NOC[C@H](O)CO)c1ccc(F)c(F)c1Nc1ccc(I)cc1F` [Form A-1] the “Results (solid form after 1 day at ambient)” value [1] was “Amorphous”.
For `O=C(NOC[C@H](O)CO)c1ccc(F)c(F)c1Nc1ccc(I)cc1F` [Form A-1a], the “Solid state by PXRD and PLM after one day” value (“Solid state by PXRD and PLM” below) ([1]; open vial at RT) was “no crystallization”.
With `O=C(NOC[C@H](O)CO)c1ccc(F)c(F)c1Nc1ccc(I)cc1F` [Form A-1b] the “Solid state by PXRD and PLM” value ([1]; capped vial at RT) was “no crystallization”.
In the case of `O=C(NOC[C@H](O)CO)c1ccc(F)c(F)c1Nc1ccc(I)cc1F` [Form A-2a], the “Solid state by PXRD and PLM” value ([1]; open vial at RT) is reported as “crystallization to Form IV”.
In the case of `O=C(NOC[C@H](O)CO)c1ccc(F)c(F)c1Nc1ccc(I)cc1F` [Form IX, N—((R)-2,3-dihydroxypropoxy)-3,4-difluoro-2-(2-fluoro-4-iodo-phenylamino)-benzamide], the “Conversion at ambient conditions (in words)” value ([2]; ambient conditions) is reported as “significant conversion toward Form IV after 20 hours; also recorded: slowly convert to Form IV”.
In the case of `O=C(NOC[C@H](O)CO)c1ccc(F)c(F)c1Nc1ccc(I)cc1F` [Form VI, N—((R)-2,3-dihydroxypropoxy)-3,4-difluoro-2-(2-fluoro-4-iodo-phenylamino)-benzamide], the “Form after vacuum oven drying (PXRD)” value [3] is reported as “Partially converted to Form A”, the “Stable in solid-state at ambient conditions for” value ([2]; solid-state, ambient conditions) is reported as at least 2 weeks and the “Result of desolvation/dehydration by heating” value [4] is reported as “melted and solidified in molten, amorphous state, possible decomposition”.
For `O=C(NOC[C@H](O)CO)c1ccc(F)c(F)c1Nc1ccc(I)cc1F` [Form VIII, N—((R)-2,3-dihydroxypropoxy)-3,4-difluoro-2-(2-fluoro-4-iodo-phenylamino)-benzamide], the “Stable at ambient conditions for” value ([2]; ambient conditions) was at least 2 days.
With `O=C(NOC[C@H](O)CO)c1ccc(F)c(F)c1Nc1ccc(I)cc1F` [Form XIII, N—((R)-2,3-dihydroxypropoxy)-3,4-difluoro-2-(2-fluoro-4-iodo-phenylamino)-benzamide] the “Form after vacuum oven drying (PXRD)” value [3] was “Form XIII/Form IV mixture converted to Form IV”.
With `O=C(NOC[C@H](O)CO)c1ccc(F)c(F)c1Nc1ccc(I)cc1F` [Form XIV, N—((R)-2,3-dihydroxypropoxy)-3,4-difluoro-2-(2-fluoro-4-iodo-phenylamino)-benzamide] the “Conversion at ambient conditions (in words)” value ([2]; ambient conditions) was “convert to Form IV within four days”.
With `O=C(NOC[C@H](O)CO)c1ccc(F)c(F)c1Nc1ccc(I)cc1F` [Form XIX, N—((R)-2,3-dihydroxypropoxy)-3,4-difluoro-2-(2-fluoro-4-iodo-phenylamino)-benzamide] the “Form after vacuum oven drying (PXRD)” value [3] was “Remained unchanged”, the “Stable in a capped vial for” value ([2]; capped vial) was at least 2 weeks and the “Result of desolvation/dehydration by heating” value [4] was “solid particles (not melted). PXRD indicated Form I”.
With `O=C(NOC[C@H](O)CO)c1ccc(F)c(F)c1Nc1ccc(I)cc1F` [Form XX, N—((R)-2,3-dihydroxypropoxy)-3,4-difluoro-2-(2-fluoro-4-iodo-phenylamino)-benzamide] the “Time to convert to Form IV at ambient conditions” value ([2]; ambient conditions) was at most 10 days.
In the case of `O=C(NOC[C@H](O)CO)c1ccc(F)c(F)c1Nc1ccc(I)cc1F` [Form XXI, N—((R)-2,3-dihydroxypropoxy)-3,4-difluoro-2-(2-fluoro-4-iodo-phenylamino)-benzamide], the “Conversion noted under Nature of Solvate (Table 2)” value [2] is reported as “(converts to Form IV)”.
With `O=C(NOC[C@H](O)CO)c1ccc(F)c(F)c1Nc1ccc(I)cc1F` [mirdametinib, N—((R)-2,3-dihydroxypropoxy)-3,4-difluoro-2-(2-fluoro-4-iodo-phenylamino)-benzamide] the solubility ([5]; 1-propanol, 23 °C, organic solvent or mixture) was 101 to 202 mg/mL (≈ 209 to 419 mM), the solubility ([5]; 2-methyl-2-butanol, 23 °C, organic solvent or mixture) was 97 to 194 mg/mL (≈ 201 to 402 mM) and the solubility ([5]; 2-propanol (IPA), 23 °C, organic solvent or mixture) was 98 to 196 mg/mL (≈ 203 to 406 mM). The solubility ([5]; 23 °C, organic solvent or mixture, 2-Propanol: water (9:1 v/v)) was over 400 mg/mL, the solubility ([5]; DMF (dimethylformamide), 23 °C, organic solvent or mixture) was over 408 mg/mL and the solubility ([5]; Dioxane, 23 °C, organic solvent or mixture) was over 408 mg/mL. The solubility ([5]; Ethanol/Water (9:1 v/v), 23 °C, organic solvent or mixture) was over 424 mg/mL, the solubility ([5]; MIBK (4-methyl-2-pentanone), 23 °C, organic solvent or mixture) was 48 to 95 mg/mL (≈ 99.5 to 197 mM) and the solubility ([5]; MTBE (methyl-t-butylether), 23 °C, organic solvent or mixture) was under 6 mg/mL. The solubility ([5]; MeCN/Water (7:3 v/v), 23 °C, organic solvent or mixture) was over 408 mg/mL, the solubility ([5]; MeCN/water (8:2 v/v), 23 °C, organic solvent or mixture) was over 412 mg/mL and the solubility ([5]; acetic acid (HOAc), 23 °C, organic solvent or mixture) was over 388 mg/mL. It also gave a solubility ([5]; acetone, 23 °C, organic solvent or mixture) of over 400 mg/mL, a solubility ([5]; acetonitrile (MeCN), 23 °C, organic solvent or mixture) of 19 to 49 mg/mL (≈ 39.4 to 102 mM) and a solubility ([5]; chloroform, 23 °C, organic solvent or mixture) of under 6 mg/mL. It also gave a solubility ([5]; cyclohexane, 23 °C, organic solvent or mixture) of under 6 mg/mL, a solubility ([5]; dichloromethane (DCM), 23 °C, organic solvent or mixture) of under 6 mg/mL and a solubility ([5]; dimethyl sulfoxide (DMSO), 23 °C, organic solvent or mixture) of over 388 mg/mL. It also gave a solubility ([5]; dimethylcarbonate (DMC), 23 °C, organic solvent or mixture) of 10 to 19 mg/mL (≈ 20.7 to 39.4 mM), a solubility ([5]; ethanol, 23 °C, organic solvent or mixture) of 208 to 416 mg/mL (≈ 431 to 863 mM) and a solubility ([5]; ethanol/toluene (9:1), 23 °C, organic solvent or mixture) of 210 to 420 mg/mL (≈ 436 to 871 mM). For the same molecule, the solubility ([5]; ethyl acetate (EtOAc), 23 °C, organic solvent or mixture) was 48 to 95 mg/mL (≈ 99.5 to 197 mM), the solubility ([5]; isopropyl ether (IPE), 23 °C, organic solvent or mixture) was under 6 mg/mL and the solubility ([5]; methanol (MeOH), 23 °C, organic solvent or mixture) was over 380 mg/mL. It also gave a solubility ([5]; nitromethane, 23 °C, organic solvent or mixture) of 10 to 20 mg/mL (≈ 20.7 to 41.5 mM), a solubility at 1 h ([5]; organic solvent or mixture, Chloroform) of under 6 mg/mL and a solubility at 1 h ([5]; organic solvent or mixture, Cyclohexane) of under 6 mg/mL. For the same molecule, the solubility at 1 h ([5]; organic solvent or mixture, Dichloromethane (DCM)) was over 6 mg/mL, the solubility at 1 h ([5]; organic solvent or mixture, Isopropyl ether (IPE)) was under 6 mg/mL and the solubility at 1 h ([5]; organic solvent or mixture, MTBE (methyl-t-butylether)) was over 6 mg/mL. For the same molecule, the solubility ([5]; organic solvent or mixture, Tert-butanol (t-BuOH), solubility determined at 30° C. (footnote)) was 6 to 10 mg/mL (≈ 12.4 to 20.7 mM), the solubility at 1 h ([5]; organic solvent or mixture, Toluene) was under 6 mg/mL and the solubility ([5]; tetrahydrofuran (THF), 23 °C, organic solvent or mixture) was over 396 mg/mL. The solubility at 1 h ([5]; Water) was under 6 mg/mL, the solubility ([5]; toluene, 23 °C, organic solvent or mixture) was under 6 mg/mL and the solubility ([5]; trifluoroethanol (TFE), 23 °C, organic solvent or mixture) was 7 to 12 mg/mL (≈ 14.5 to 24.9 mM). The solubility ([5]; water, 23 °C, water) was under 6 mg/mL.
